Experimental data: PMC6197228, “Inhibition of TBK1/IKKε Promotes Regeneration of Pancreatic β-cells” (Scientific Reports, 2018)

Key:
Assay type in all cases: biochemical
[1] = target: T1, TANK-binding kinase 1 (TBK1) (Homo sapiens, UniProt Q9UHD2); experiment: kinase profiling, dose response IC50
T1 sequence (Q9UHD2 1-729): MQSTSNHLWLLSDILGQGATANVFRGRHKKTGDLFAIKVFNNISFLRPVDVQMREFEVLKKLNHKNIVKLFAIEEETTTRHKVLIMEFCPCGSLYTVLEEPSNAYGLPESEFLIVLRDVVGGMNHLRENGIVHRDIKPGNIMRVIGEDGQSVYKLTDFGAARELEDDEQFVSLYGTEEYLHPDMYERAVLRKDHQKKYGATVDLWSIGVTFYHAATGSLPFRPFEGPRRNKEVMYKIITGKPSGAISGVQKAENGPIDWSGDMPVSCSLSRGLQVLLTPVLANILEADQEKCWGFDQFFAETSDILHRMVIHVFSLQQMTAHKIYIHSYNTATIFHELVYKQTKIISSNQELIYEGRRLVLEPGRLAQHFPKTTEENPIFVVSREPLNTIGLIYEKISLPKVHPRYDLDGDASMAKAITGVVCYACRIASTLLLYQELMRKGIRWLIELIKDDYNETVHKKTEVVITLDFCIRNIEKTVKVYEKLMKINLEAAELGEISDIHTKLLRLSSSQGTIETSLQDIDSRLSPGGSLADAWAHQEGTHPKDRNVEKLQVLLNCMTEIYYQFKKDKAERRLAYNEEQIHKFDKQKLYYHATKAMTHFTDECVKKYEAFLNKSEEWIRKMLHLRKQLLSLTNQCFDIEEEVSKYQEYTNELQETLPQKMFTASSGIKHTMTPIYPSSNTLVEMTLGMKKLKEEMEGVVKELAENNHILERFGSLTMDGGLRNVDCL

IKKα = target: T2, IKKα (Homo sapiens, UniProt O15111); experiment: kinase profiling, dose response IC50 (selectivity)
T2 construct: gene CHUK
T2 sequence (O15111 1-745): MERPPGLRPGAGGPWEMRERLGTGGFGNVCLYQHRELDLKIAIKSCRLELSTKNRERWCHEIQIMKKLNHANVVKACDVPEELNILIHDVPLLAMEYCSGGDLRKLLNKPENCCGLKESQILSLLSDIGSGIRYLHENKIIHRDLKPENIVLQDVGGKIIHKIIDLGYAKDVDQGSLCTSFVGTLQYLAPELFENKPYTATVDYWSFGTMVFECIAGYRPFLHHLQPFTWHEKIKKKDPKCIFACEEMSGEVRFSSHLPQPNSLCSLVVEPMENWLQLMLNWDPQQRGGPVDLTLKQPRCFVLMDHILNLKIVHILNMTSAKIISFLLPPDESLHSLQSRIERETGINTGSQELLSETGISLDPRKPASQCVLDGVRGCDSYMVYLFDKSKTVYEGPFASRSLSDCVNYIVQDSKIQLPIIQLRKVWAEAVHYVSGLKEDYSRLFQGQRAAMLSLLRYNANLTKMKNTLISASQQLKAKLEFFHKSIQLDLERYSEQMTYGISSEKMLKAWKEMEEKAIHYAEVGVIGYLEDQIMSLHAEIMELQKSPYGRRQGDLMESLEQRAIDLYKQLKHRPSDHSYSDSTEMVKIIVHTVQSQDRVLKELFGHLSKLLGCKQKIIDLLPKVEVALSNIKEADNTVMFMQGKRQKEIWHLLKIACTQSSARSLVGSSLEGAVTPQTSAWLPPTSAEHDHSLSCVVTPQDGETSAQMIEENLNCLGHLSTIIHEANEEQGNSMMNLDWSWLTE

IKKβ = target: T3, IKKβ (Homo sapiens, UniProt O14920); experiment: kinase profiling, dose response IC50 (selectivity)
T3 construct: gene IKBKB
T3 sequence (O14920 1-756): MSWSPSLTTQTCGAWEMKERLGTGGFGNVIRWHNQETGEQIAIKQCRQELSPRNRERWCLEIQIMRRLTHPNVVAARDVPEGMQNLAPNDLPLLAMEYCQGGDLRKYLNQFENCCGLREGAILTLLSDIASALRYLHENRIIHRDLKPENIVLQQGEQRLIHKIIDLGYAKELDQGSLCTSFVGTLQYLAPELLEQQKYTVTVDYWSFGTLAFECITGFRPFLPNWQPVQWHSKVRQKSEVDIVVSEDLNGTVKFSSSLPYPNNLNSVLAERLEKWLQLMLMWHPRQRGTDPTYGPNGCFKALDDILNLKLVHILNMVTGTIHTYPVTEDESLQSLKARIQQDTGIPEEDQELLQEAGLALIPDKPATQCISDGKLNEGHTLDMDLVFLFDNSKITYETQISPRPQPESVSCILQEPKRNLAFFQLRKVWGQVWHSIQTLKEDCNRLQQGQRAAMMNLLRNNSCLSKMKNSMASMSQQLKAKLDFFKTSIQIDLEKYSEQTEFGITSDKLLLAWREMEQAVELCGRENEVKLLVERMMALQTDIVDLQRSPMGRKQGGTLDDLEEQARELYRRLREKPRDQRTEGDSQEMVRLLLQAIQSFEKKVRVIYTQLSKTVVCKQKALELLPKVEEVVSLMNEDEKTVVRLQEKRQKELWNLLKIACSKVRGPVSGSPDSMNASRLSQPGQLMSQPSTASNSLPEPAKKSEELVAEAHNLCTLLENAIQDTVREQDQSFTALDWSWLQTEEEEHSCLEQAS

IκB kinase ε (IKKε) = target: T4, IκB kinase ε (IKKε) (Homo sapiens, UniProt Q14164); experiment: kinase profiling, dose response IC50
T4 construct: gene IKBKE
T4 sequence (Q14164 1-716): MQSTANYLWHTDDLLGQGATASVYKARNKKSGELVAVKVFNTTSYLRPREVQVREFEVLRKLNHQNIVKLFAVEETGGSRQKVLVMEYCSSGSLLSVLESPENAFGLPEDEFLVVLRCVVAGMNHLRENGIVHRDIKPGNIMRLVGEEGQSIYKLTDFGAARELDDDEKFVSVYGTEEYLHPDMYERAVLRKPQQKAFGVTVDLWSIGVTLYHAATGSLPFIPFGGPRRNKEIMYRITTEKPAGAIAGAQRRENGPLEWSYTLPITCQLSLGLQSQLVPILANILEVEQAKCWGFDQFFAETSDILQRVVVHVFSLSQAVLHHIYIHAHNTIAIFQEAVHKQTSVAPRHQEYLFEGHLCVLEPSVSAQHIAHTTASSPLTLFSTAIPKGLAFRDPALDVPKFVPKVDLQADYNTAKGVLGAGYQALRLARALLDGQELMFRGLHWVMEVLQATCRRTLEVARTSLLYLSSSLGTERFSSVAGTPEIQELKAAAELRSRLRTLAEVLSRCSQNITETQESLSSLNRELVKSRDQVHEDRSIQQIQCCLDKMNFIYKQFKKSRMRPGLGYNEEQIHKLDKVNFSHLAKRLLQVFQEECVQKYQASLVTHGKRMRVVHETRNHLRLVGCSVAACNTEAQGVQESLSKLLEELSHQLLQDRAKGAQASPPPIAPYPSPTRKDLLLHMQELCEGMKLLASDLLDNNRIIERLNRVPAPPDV

O=C(O)/C=C/c1ccc2noc(-c3ccccc3)c2c1 [PIAA, (E)-3-(3-phenylbenzo[c]isoxazol-5-yl)acrylic acid]
IC50 [1]: 400 nM
IC50 (IKKα): 47.2 µM
IC50 (IKKβ): 50.5 µM
IC50 (IκB kinase ε (IKKε)): ~1070 nM
